Source: patent publication US12285012B2, “Compositions comprising pyridine carboxylate herbicides with acetolactate synthase (ALS) inhibitor herbicides” (Corteva Agriscience LLC, priority 2018, dated 2025)

Assays:
[1] = test system: ivyleaf morningglory (IPOHE, Ipomoea hederacea); test: Greenhouse postemergence herbicidal effect; format: in vivo
From the text: (§1) Seeds of the desired test plant species were planted in a 90:10% v/v (volume/volume) mixture of PRO-MIX® BX (Premier Tech Horticulture, Quakertown, PA, USA) and PROFILE® GREENS GRADE™ (Profile Products LLC, Buffalo Grove, IL, USA) planting mixture, which typically has a pH of 5.2 to 6.2 and an organic matter content of at least 50 percent, in plastic pots with a surface area of 103.2 square centimeters (cm^2). In some aspects, to ensure good germination and healthy plants, a fungicide treatment and/or other chemical or physical treatment was applied. The plants were grown for 7-36 days (d) in a greenhouse with an approximate 14-hour (h) photo-period which was maintained at about 23° C. during the day and 22° C. during the night. Nutrients and water were added on a regular basis and supplemental lighting was provided with overhead metal halide 1000-Watt lamps as necessary. The plants were employed for testing when they reached the second or third true leaf stage.
(§2) Emulsifiable concentrates of each of each pyridine carboxylate herbicide (Compound A or Compound B) were prepared at 100 grams acid equivalent per liter (g ae/L). The emulsifiable concentrates also included a safener, cloquintocet-mexyl, at 120 grams active ingredient per liter (g ai/L), unless otherwise noted below. An aliquot of each emulsifiable concentrate was placed in a 25 mL glass vial and diluted with an aqueous mixture of 1.25% (v/v) ACTIROB® B esterified rapeseed oil (Bayer Crop Science, Research Triangle Park, NC, USA) or MSO® Concentrate with LECI-TECH® methylated soybean oil (Loveland Products, Loveland, CO, USA) to obtain concentrated stock solutions at the highest application rate for each herbicide, based upon a 12 milliliter (mL) application volume at a rate of 187 liters per hectare (L/ha). The concentrated stock solutions were further diluted with an aqueous mixture of 1.25% v/v ACTIROB® B or MSO® Concentrate with LECI-TECH® to obtain stock solutions at reduced application rates for each herbicide. Spray solutions of the herbicide combinations (Compound A or Compound B plus ALS herbicide) were prepared by adding weighed amounts or aliquots of the ALS herbicides to the stock solutions of Compound A or Compound B to form 12-mL spray solutions in two- or three-way combinations.
(§3) The spray solutions were applied to the plant material with an overhead Mandel track sprayer equipped with 8002E nozzles calibrated to deliver 187 L/ha over an application area of 0.503 square meters (m^2) at a spray height of 18 inches (43 centimeters (cm)) above the average plant canopy. Control plants were sprayed in the same manner with the solvent blank. All pyridine carboxylate herbicide (component a) application rates are given as “g ae/ha” and all ALS inhibitor (component b) application rates are given as “g ai/ha.”
(§4) The treated plants and control plants were placed in a greenhouse as described above and watered by sub-irrigation to prevent wash-off of the test compounds. After 20-22 d, the condition of the test plants as compared with that of the control plants was determined visually and scored on a scale of 0 to 100 percent where 0 corresponds to no injury and 100 corresponds to complete kill.

[2] = test system: broad-leaf dock (RUMOB, Rumex obtusifolius); test: Greenhouse postemergence herbicidal effect; format: in vivo
From the text: as §1, §2, §3, §4

[3] = test system: soybean (GLXMA, Glycine max); test: Greenhouse postemergence herbicidal effect; format: in vivo; details: 8.75 g/ha
From the text: as §1, §2, §3, §4

[4] = test system: common sunflower (HELAN, Helianthus annuus); test: Greenhouse postemergence herbicidal effect; format: in vivo
From the text: as §1, §2, §3, §4

[5] = test system: velvetleaf (ABUTH, Abutilon theophrasti); test: Greenhouse postemergence herbicidal effect; format: in vivo; details: 8.75 g/ha
From the text: as §1, §2, §3, §4

[6] = test system: kochia (KCHSC, Kochia scoparia); test: Greenhouse postemergence herbicidal effect; format: in vivo
Procedure: as §1, with “In some aspects, to ensure good germination and healthy plants, a fungicide treatment and/or other chemical or physical treatment was applied.” left out
as §2, §3, §4

[7] = test system: common lambsquarters (CHEAL, Chenopodium album L.); test: Greenhouse postemergence herbicidal effect; format: in vivo
Procedure: as §1, with “In some aspects, to ensure good germination and healthy plants, a fungicide treatment and/or other chemical or physical treatment was applied.” left out
as §2, §3, §4

[8] = test system: Canadian thistle (CIRAR, Cirsium arvense); test: Greenhouse postemergence herbicidal effect; format: in vivo
Procedure: (§5) The plants were grown for 7-36 days (d) in a greenhouse with an approximate 14-hour (h) photo-period which was maintained at about 23° C. during the day and 22° C. during the night. Nutrients and water were added on a regular basis and supplemental lighting was provided with overhead metal halide 1000-Watt lamps as necessary. The plants were employed for testing when they reached the second or third true leaf stage.
(§6) The emulsifiable concentrates also included a safener, cloquintocet-mexyl, at 120 grams active ingredient per liter (g ai/L), unless otherwise noted below.
(§7) Control plants were sprayed in the same manner with the solvent blank. All pyridine carboxylate herbicide (component a) application rates are given as “g ae/ha” and all ALS inhibitor (component b) application rates are given as “g ai/ha.”
as §4

[9] = test system: wild mustard (SINAR, Sinapis arvensis); test: Greenhouse postemergence herbicidal effect; format: in vivo; details: Halosulfuron 8.75 g/ha
Procedure: as §5, §6, §7, §4

[10] = test system: chickweed (STEME, Stellaria media); test: Greenhouse postemergence herbicidal effect; format: in vivo
Procedure: as §5, §6, §7, §4

[11] = test system: winter rape (BRSNW, Brassica napus); test: Greenhouse postemergence herbicidal effect; format: in vivo; details: Halosulfuron 8.75 g/ha
Procedure: as §5, §6, §7, §4

[12] = test system: wild chamomile (MATCH, Matricaria chamomilla); test: Greenhouse postemergence herbicidal effect; format: in vivo
Procedure: as §5, §6, §7, §4

[13] = test system: pigweed (AMARE, Amaranthus retroflexus); test: Greenhouse postemergence herbicidal effect; format: in vivo
Procedure: as §5, §6, §7, §4

[14] = test system: wild buckwheat (POLCO, Polygonum convolvulus); test: Greenhouse postemergence herbicidal effect; format: in vivo
Procedure: as §5, §6, §7, §4

[15] = test system: wild pansy (VIOTR, Viola tricolor); test: Greenhouse postemergence herbicidal effect; format: in vivo
Procedure: as §5, §6, §7, §4

[16] = test system: poinsettia (EPHHL, Euphorbia heterophylla); test: Greenhouse postemergence herbicidal effect; format: in vivo; details: Pyribenzoxim 10 g/ha
From the text: as §1, §2, §3, §4

[17] = test system: grain sorghum (SORVU, Sorghum vulgare); test: Greenhouse postemergence herbicidal effect; format: in vivo; details: Pyribenzoxim 10 g/ha
From the text: as §1, §2, §3, §4

[18] = test system: nutsedge (CYPES, Cyperus esculentus); test: Greenhouse postemergence herbicidal effect; format: in vivo; details: Pyribenzoxim 10 g/ha
From the text: as §1, §2, §3, §4

[19] = test system: spring wheat (TRZAS); format: in vivo, Triticum aestivum
Procedure: as §5, §6, §7, §4

[20] = test system: spring rape (BRSNN, Brassica napus); test: Greenhouse postemergence herbicidal effect; format: in vivo; details: Pyribenzoxim 10 g/ha
Procedure: as §5, §6, §7, §4

[21] = test system: spring barley (HORVS); format: in vivo, Hordeum vulgare; details: 10 g/ha
Procedure: as §5, §6, §7, §4

[22] = test system: large crabgrass (DIGSA, Digitaria sanguinalis); test: Greenhouse postemergence herbicidal effect; format: in vivo; details: DIGSA; Flupyrsulfuron 10 g/ha
From the text: as §1, §2, §3, §4

[23] = test system: Russian thistle (SASKR, Salsola kali); test: Greenhouse postemergence herbicidal effect; format: in vivo; details: 10 g/ha
Procedure: as §5, §6, §7, §4

Question: Which “% visual injury, Obs” value ([1]; 8.75 g/ha) does the source give for halosulfuron here?
Answer: 0%

Question: What about the “% visual injury, Obs” value ([2]; 8.75 g/ha) of the same molecule?
Answer: 0%

Question: What about the “% visual injury, Obs” value [3] of the same molecule?
Answer: 78%

Question: What about the “% visual injury, Obs” value ([4]; 8.75 g/ha) of the same molecule?
Answer: 100%

Question: What about the “% visual injury, Obs” value [5] of the same molecule?
Answer: 95%

Question: What about the “% visual injury, Obs” value ([6]; 8.75 g/ha) of the same molecule?
Answer: 0%

Question: What about the “% visual injury” value ([6]; Halosulfuron 8.75 g/ha) of the same molecule?
Answer: 15%

Question: What about the “% visual injury, Obs” value ([7]; 8.75 g/ha) of the same molecule?
Answer: 0%

Question: And the “% visual injury” value ([7]; Halosulfuron 8.75 g/ha)?
Answer: 10%

Question: And the “% visual injury, Obs” value ([8]; 8.75 g/ha)?
Answer: 10%

Question: And the “% visual injury” value ([8]; Halosulfuron 8.75 g/ha)?
Answer: 40%

Question: What about the “% visual injury” value [9] of the same molecule?
Answer: 95%

Question: And the “% visual injury, Obs” value ([10]; 8.75 g/ha)?
Answer: 0%

Question: What about the “% visual injury” value [11] of the same molecule?
Answer: 88%

Question: And the “% visual injury” value ([12]; Halosulfuron 8.75 g/ha)?
Answer: 78%

Question: What about the “% visual injury, Obs” value ([13]; 8.75 g/ha) of the same molecule?
Answer: 40%

Question: What about the “% visual injury” value ([13]; Halosulfuron 8.75 g/ha) of the same molecule?
Answer: 95%

Question: And the “% visual injury, Obs” value ([14]; 8.75 g/ha)?
Answer: 5%

Question: What about the “% visual injury” value ([14]; Halosulfuron 8.75 g/ha) of the same molecule?
Answer: 63%

Question: And the “% visual injury, Obs” value ([15]; 8.75 g/ha)?
Answer: 15%

Question: `COc1cc(OC)nc(Oc2cccc(Oc3nc(OC)cc(OC)n3)c2C(=O)ON=C(c2ccccc2)c2ccccc2)n1` [Pyribenzoxim, pyribenzoxim] was tested. Which “% visual injury” value [16] did it give?
Answer: 100%

Question: And the “% visual injury” value ([1]; Pyribenzoxim 10 g/ha)?
Answer: 78%

Question: What about the “% visual injury” value [17] of the same molecule?
Answer: 73%

Question: And the “% visual injury” value [18]?
Answer: 0%

Question: And the “% visual injury” value ([4]; Pyribenzoxim 10 g/ha)?
Answer: 98%

Question: What about the “% visual injury” value ([19]; Pyribenzoxim 10 g/ha) of the same molecule?
Answer: 13%

Question: What about the “% visual injury” value ([8]; Pyribenzoxim 10 g/ha) of the same molecule?
Answer: 90%

Question: And the “% visual injury” value [20]?
Answer: 90%

Question: For flupyrsulfuron, which “% visual injury, Obs” value [21] is on record?
Answer: 8%

Question: What about the “Obs % visual injury” value ([2]; RUMOB, Flupyrsulfuron 10 g/ha) of the same molecule?
Answer: 70%

Question: What about the “Obs % visual injury” value [22] of the same molecule?
Answer: 0%

Question: And the “% visual injury, Obs” value ([19]; 10 g/ha)?
Answer: 0%

Question: And the “Obs % visual injury” value ([19]; TRZAS, Flupyrsulfuron 10 g/ha)?
Answer: 15%

Question: And the “% visual injury, Obs” value ([6]; 10 g/ha)?
Answer: 15%

Question: What about the “Obs % visual injury” value ([6]; KCHSC, Flupyrsulfuron 10 g/ha) of the same molecule?
Answer: 30%

Question: And the “% visual injury, Obs” value ([7]; 10 g/ha)?
Answer: 75%

Question: And the “Obs % visual injury” value ([7]; CHEAL, Flupyrsulfuron 10 g/ha)?
Answer: 63%

Question: What about the “Obs % visual injury” value ([8]; CIRAR, Flupyrsulfuron 10 g/ha) of the same molecule?
Answer: 84%

Question: What about the “Obs % visual injury” value ([10]; STEME, Flupyrsulfuron 10 g/ha) of the same molecule?
Answer: 80%

Question: And the “% visual injury, Obs” value [23]?
Answer: 45%

Question: And the “% visual injury, Obs” value ([12]; 10 g/ha)?
Answer: 83%

Question: And the “Obs % visual injury” value ([13]; AMARE, Flupyrsulfuron 10 g/ha)?
Answer: 97%

Question: And the “Obs % visual injury” value ([14]; POLCO, Flupyrsulfuron 10 g/ha)?
Answer: 91%

Question: And the “Obs % visual injury” value ([15]; VIOTR, Flupyrsulfuron 10 g/ha)?
Answer: 8%
